Laboratory results published in patent publication US20140057977A1, “Induction of Arteriogenesis” (G. Pohl-Boskamp GmbH & Co. KG, priority 2012, published 2014).
Where “and” joins values, the source holds several entries; their conditions need not be identical. Identical values can stand only once. Entries after “also recorded” stand apart in the source; their conditions may differ.

What was measured:
Assay type in all cases: in vivo
[1] = test system: rat heart; assay: ST segment elevation (ECG) during final permanent LAD occlusion (FPO), rat repetitive ischemia protocol (RIP) arteriogenesis model
[2] = test system: rat heart; assay: Ventricular arrhythmias during FPO, Lown classification and VPB score
[3] = test system: rat heart; assay: Infarct size by TTC staining after 90 minutes of LAD occlusion; settings: for Infarct size: 90 min LAD occlusion, percentage of the area of the left ventricle

CC(=O)Oc1ccccc1C(=O)O [ASA+PBS, acetyl salicylic acid]
ST segment elevation compared to controls (in words) ([1]; 5 DAYS RIP, after FPO): higher compared to the PBS control group, but there is no significance
arrhythmias / VPB-Score compared to controls (in words) ([2]; 5 DAYS RIP, during FPO): higher compared to the controls
Infarct size ([3]; 5 DAYS RIP): 12.51±3.05%
infarct size compared to controls (in words) ([3]; 5 DAYS RIP, listed as ASA): increase of infarct volumes
infarct size compared to controls (in words) ([3]; 5 DAYS RIP, listed as ASS+PBS): minimally increased

CC(=O)Oc1ccccc1C(=O)O [ASA+NTG-PLACEBO, acetyl salicylic acid]
ST segment elevation ([1]; 5 DAYS RIP, after FPO): 0.144±0.091 mV
rats with class IIIa arrhythmias ([2]; 5 DAYS RIP, during FPO): 16.7%
rats with class IVb arrhythmias ([2]; 5 DAYS RIP, during FPO): 83.3%
VPB-Score ([2]; RIP (Modules 2-4)): 5.50
Infarct size ([3]; 5 DAYS RIP): 13.92±1.71%
Infarct size ([3]; 5 DAYS RIP, listed as NTG-PLACEBO+ASS): 13.92±1.71%

O=[N+]([O-])O[C@H]1CO[C@H]2[C@@H]1OC[C@H]2O[N+](=O)[O-] [ISDN, isosorbide dinitrate]
ST segment elevation compared to controls (in words) ([1]; rat, in vivo): lower ST segment elevation course; also recorded: decreased compared to the PBS group but there is no significance; also recorded: non-significantly decreased; also recorded: decreases in ST elevation
arrhythmias / VPB-Score compared to controls (in words) ([2]; rat, in vivo): less arrhythmias
infarct size compared to controls (in words) ([3]; rat, in vivo): smaller compared to controls (treated with PBS or ISDN-Placebo), but there is no significance; also recorded: smaller; also recorded: reduced infarct volumes

O=[N+]([O-])OCC(CO[N+](=O)[O-])O[N+](=O)[O-] [NTG, nitroglycerin]
ST segment elevation compared to controls (in words) ([1]; rat, in vivo): lower ST segment elevation course; also recorded: significantly decreased; also recorded: significantly attenuated ST elevation
VPB-Score ([2]; rat, in vivo): 5.77 and 3.60
arrhythmias / VPB-Score compared to controls (in words) ([2]; rat, in vivo): more often scaled into grade 0; also recorded: reduced arrhythmias; also recorded: decreased serious arrhythmias
rats with class 0 arrhythmias ([2]; rat, in vivo): 57.1%
rats with class IIIa arrhythmias ([2]; rat, in vivo): 14.3%
rats with class IVb arrhythmias ([2]; rat, in vivo): 85.7% and 42.9%
decrease of infarct volume compared to the control group ([3]; rat, in vivo): more than 50%
infarct size compared to controls (in words) ([3]; rat, in vivo): significantly smaller infarct area; also recorded: decreases the size of an experimentally induced myocardial infarct
